# Experimental data published in ChEMBL document CHEMBL1201862, “PubChem BioAssay data set” (2004).
# The source made the active and inactive calls.
# How the values were obtained:
# [1] = Counterscreen for IDE inhibitors: Luminescence-based cell-based high throughput dose response assay to identify compounds that are cytotoxic to HEK cells. [Related pubchem assays: 434962 (Primary screen (IDE inhibitors in singlicate)), 449730 (Counterscreen (Cytotoxicity in triplicate)), 435028 (Confirmation (IDE inhibitors in triplicate)) …; format: functional; settings: HEK293
# [2] = target: T1, Insulin-degrading enzyme (Homo sapiens, UniProt P14735); assay: Dose Response: Fluorescence polarization-based cell-based high throughput dose response assay for inhibitors of insulin-degrading enzyme (IDE). [Related pubchem assays: 434962 (Primary screen (IDE inhibitors in singlicate)), 449730 (Counterscreen (Cytotoxicity in triplicate)), 435028 (Confirmation (IDE inhibitors in triplicate)), 434984 (Summary …; format: functional
# T1 sequence (P14735 whole entry): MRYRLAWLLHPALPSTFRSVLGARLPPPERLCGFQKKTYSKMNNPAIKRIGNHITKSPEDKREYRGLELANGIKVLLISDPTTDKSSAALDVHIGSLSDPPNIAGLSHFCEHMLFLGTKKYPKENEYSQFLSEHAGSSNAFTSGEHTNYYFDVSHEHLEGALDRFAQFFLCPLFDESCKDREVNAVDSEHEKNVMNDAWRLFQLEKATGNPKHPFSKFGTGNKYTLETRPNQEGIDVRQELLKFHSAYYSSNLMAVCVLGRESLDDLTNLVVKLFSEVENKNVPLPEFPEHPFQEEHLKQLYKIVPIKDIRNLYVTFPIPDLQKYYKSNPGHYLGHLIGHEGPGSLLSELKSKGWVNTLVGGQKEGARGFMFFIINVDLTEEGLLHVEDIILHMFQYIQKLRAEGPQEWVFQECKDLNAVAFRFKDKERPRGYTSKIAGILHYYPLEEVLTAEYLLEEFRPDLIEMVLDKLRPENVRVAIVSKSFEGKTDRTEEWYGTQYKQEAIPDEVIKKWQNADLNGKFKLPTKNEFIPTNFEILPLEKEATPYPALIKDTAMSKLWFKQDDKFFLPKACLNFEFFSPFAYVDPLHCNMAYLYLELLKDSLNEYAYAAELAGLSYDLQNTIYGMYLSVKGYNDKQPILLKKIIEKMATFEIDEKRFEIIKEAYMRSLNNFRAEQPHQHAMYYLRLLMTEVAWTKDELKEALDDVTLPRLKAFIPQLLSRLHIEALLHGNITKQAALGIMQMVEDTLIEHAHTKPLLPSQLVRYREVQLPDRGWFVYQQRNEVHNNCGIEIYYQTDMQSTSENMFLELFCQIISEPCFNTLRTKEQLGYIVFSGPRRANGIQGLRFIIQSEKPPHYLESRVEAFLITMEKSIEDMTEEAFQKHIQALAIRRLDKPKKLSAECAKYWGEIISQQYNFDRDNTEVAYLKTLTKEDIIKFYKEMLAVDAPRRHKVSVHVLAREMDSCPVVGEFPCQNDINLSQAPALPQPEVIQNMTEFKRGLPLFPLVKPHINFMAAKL
# [3] = target: G-protein coupled receptor 55 (Homo sapiens, UniProt Q9Y2T6); assay: selective activators of receptor GPR55 – imaging, U2OS cells, beta-arrestin-GFP redistribution, primary screen (AID 1961); format: functional
# [4] = target: T2, Short transient receptor potential channel 4 (Mus musculus, UniProt Q9QUQ5); assay: calcium entry via TRPC4 opening agents – cell-based, HEK293 TRPC4/mu-opioid, Fluo-4 calcium, dose response (AID 434937); format: functional
# T2 sequence (Q9QUQ5 whole entry): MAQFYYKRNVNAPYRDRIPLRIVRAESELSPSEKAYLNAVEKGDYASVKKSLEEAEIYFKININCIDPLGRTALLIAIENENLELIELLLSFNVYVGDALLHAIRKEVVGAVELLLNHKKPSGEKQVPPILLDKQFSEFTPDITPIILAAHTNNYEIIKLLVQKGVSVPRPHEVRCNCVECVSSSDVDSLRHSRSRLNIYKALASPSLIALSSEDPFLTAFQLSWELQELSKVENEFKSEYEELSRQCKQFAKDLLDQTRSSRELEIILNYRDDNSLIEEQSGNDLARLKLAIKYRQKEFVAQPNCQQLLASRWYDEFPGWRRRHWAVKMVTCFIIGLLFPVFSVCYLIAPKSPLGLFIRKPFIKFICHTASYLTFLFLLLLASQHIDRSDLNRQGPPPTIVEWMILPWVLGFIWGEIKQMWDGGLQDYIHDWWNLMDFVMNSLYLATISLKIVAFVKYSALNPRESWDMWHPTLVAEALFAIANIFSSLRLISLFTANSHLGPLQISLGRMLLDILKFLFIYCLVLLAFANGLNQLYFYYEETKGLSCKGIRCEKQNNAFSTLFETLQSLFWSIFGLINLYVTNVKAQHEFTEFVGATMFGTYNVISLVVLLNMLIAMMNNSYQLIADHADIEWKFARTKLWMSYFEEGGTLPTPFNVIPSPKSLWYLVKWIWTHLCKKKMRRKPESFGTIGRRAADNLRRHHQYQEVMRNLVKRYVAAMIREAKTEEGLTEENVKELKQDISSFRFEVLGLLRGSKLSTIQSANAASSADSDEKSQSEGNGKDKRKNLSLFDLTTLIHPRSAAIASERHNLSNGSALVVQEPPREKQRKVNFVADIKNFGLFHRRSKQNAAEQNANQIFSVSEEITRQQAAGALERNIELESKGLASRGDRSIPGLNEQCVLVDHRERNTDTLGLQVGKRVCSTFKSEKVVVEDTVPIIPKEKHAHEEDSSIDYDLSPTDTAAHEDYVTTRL
# [5] = Cytotoxicity screening for potential Inhibitors of Bacterial Capsule Biogenesis. [Related pubchem assays (depositor defined):AID488970]; format: functional
# [6] = target: FAD-linked sulfhydryl oxidase ALR (Homo sapiens, UniProt P55789); assay: ALR-catalysed DTT oxidation blockers – biochemical, H2O2 detection, luminescence, cherry-pick, dose response (AID 493248)
# [7] = target: T3, SUMO-activating enzyme (Homo sapiens, UniProt Q9UBT2); assay: blockers of UBC9-mediated SUMO conjugation – biochemical, AlphaScreen, SUMOylation inhibitor project, confirmation (AID 2018); format: functional
# [8] = CCR5-tropic HIV-1 fusion blockers – cell-based, CCR5-tropic Env, dose response (AID 2279); format: functional
# [9] = target: T3, SUMO-activating enzyme; assay: blockers of SAE1/SAE2–UBC9 SUMO transfer – biochemical, HTRF, uHTS, primary screen (AID 2006); format: protein-complex assay
# [10] = target: Induced myeloid leukemia cell differentiation protein Mcl-1 (Homo sapiens, UniProt Q07820); format: functional
# [11] = target: Serine/threonine-protein phosphatase PP1-alpha catalytic subunit (Homo sapiens, UniProt P62136); assay: inhibition of protein phosphatase 1 activity – biochemical, fluorescence, dose response (AID 2403);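 also: phosphatase turnover of OMFP into fluorescent 3-O-methylfluorescein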
# [12] = Trypanosoma cruzi growth suppression in host cells – NIH3T3 host cells, beta-gal luminescence, confirmation (AID 2044); format: functional, cell-based;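 also: intracellular parasites grown in NIH/3T3 mouse fibroblasts as host cells; luminescent beta-galactosidase reporter signal from transgenic T. cruzi replicating inside host cells; inhibitors lower the luminescence signal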
# [13] = target: Serine/threonine-protein phosphatase (Homo sapiens, UniProt Q9BPW0); assay: Counterscreen for inhibitors of PP1: fluorescence-based biochemical high throughput dose response assay to identify inhibitors of Protein Phosphatase 5 (PP5). [Related pubchem assays: 2034 (Summary (PP5 inhibitors)), 1987 (PP5 inhibitors in singlate), 2235 (PP1 inhibitors in singlate)]
# [14] = NIH3T3 cell viability loss – ATP luminescence, mouse fibroblasts, counter-screen, dose response (AID 2010); format: functional, cell-based;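 also: cells exposed to compound for about 90 hours before reading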
# [15] = reduction of Shn3 3'UTR-driven luciferase in osteoblasts – cell-based, Clone20 osteoblasts, firefly luciferase, cherry-picked, dose response (AID 624132); format: functional;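 also: firefly luciferase luminescence from reporter carrying the Shn3 3'UTR in osteoblasts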
# [16] = loss of viability in HepG2 cells – cell-based, CellTiter-Glo, cherry-picked, cytotoxicity control for Shn3 inhibitor project, dose response (AID 624134); format: functional
# [17] = non-specific 3'UTR reporter inhibition in Clone20-Shn3RL – cell-based, Renilla luciferase, cherry-picked, counter-screen for Shn3 inhibitor project, dose response (AID 624133); format: functional
# [18] = target: Luciferin 4-monooxygenase (Photinus pyralis, UniProt P08659); assay: inhibition of purified Photinus pyralis luciferase – biochemical, luminescence, dose response (AID 1891)
# [19] = Luminescence Cell-Based Dose Confirmation HTS to Identify Inhibitors of Platelet Dense Granule Release. [Related pubchem assays: 1663 (Primary HTS), 1678 (Summary of Project)]; format: functional
# [20] = Luminescence-based counterscreen assay for KLF5 inhibitors: dose response cell-based high throughput screening assay to identify cytotoxic compounds using the IEC-6 intestinal epithelial cell line. [Related pubchem assays: 1700 (Primary screen.), 1834 (Confirmation screen.), 1858 (Summary AID.), 1905 (Counterscreen.)]; format: functional
# [21] = HEK-293T viability loss after treatment – luminescence, T-cell screen hits, cytotoxicity control for TCR NF-kB inhibitor project, dose response (AID 489026); format: functional, cell-based;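 also: cells exposed to compound about 14 hours before the viability readout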
# [22] = target: T4, Microphthalmia-associated transcription factor (Homo sapiens, UniProt O75030); assay: reducers of TRPM1 reporter luminescence, concentration series – cell-based, SK-MEL-5, cherry-picked, set 3, MITF inhibitor project, dose response (AID 493073); format: functional;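 also: SK-MEL-5 melanoma cells with luciferase driven by the MITF target TRPM1 promoter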
# T4 sequence (O75030 whole entry): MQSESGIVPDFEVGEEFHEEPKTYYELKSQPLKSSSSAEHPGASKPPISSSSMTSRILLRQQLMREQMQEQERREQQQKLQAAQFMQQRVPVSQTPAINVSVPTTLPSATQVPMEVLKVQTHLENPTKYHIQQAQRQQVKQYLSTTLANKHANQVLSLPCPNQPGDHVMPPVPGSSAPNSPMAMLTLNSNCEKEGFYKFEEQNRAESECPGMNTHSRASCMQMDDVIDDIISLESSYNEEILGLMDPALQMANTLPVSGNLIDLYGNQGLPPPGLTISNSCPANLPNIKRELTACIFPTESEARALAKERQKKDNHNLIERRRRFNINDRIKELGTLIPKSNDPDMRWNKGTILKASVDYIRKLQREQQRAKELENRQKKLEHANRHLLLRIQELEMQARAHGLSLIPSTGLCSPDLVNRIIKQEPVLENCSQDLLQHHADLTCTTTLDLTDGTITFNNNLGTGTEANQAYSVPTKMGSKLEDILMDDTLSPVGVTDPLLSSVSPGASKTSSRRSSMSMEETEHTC
# [23] = tested on: A-375; assay: MITF: Counter assay: A375 proliferation Measured in Cell-Based System Using Plate Reader - 2084-03_Inhibitor_Dose_DryPowder_Activity. [Related pubchem assays (depositor defined):AID488944]; format: functional; settings: Homo sapiens
# [24] = target: Paired box protein Pax-8 (Homo sapiens, UniProt Q06710); assay: PAX8 transcriptional activity inhibition in RMG-I – RMG-I cells, luciferase, cherry-pick, dose response (AID 687027); format: functional, cell-based;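 also: luciferase reporter driven by Pax8 target thyroperoxidase promoter measured by SteadyGlo luminescence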
# [25] = general cell-killing toxicity readout – plate reader, dry powder samples, cytotoxicity control for PAX8 inhibitor project, dose response (AID 743021); format: functional, cell-based
# T3 sequence (Q9UBE0 whole entry, the tested form may be a part): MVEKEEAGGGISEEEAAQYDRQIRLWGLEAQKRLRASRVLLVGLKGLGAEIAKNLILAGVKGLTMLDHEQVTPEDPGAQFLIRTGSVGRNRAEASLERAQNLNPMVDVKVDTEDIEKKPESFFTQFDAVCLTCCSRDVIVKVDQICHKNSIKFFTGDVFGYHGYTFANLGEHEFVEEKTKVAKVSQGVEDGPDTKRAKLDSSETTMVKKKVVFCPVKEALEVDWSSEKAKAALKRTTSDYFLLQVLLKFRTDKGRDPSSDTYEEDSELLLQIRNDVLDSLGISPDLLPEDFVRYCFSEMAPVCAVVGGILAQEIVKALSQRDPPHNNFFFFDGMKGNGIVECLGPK
# T3 sequence (Q9UBT2 whole entry, the tested form may be a part): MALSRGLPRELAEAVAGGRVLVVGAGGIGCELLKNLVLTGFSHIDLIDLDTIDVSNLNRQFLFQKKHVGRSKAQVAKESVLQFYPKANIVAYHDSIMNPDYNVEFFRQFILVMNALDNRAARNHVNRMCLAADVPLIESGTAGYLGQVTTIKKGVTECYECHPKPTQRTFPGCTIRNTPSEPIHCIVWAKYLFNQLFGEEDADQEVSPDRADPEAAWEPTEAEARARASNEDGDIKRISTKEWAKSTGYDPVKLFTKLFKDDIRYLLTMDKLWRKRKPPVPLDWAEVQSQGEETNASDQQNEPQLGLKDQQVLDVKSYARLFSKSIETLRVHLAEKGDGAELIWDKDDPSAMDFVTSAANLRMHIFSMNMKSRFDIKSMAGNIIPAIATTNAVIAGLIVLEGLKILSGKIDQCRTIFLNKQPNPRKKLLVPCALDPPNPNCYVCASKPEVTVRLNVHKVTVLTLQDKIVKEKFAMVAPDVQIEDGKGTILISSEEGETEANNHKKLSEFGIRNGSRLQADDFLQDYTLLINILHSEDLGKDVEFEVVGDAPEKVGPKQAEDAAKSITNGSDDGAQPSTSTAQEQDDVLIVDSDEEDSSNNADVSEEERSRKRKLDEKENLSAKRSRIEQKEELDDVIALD
# Induced myeloid leukemia cell differentiation protein Mcl-1, sequence (Q07820 whole entry): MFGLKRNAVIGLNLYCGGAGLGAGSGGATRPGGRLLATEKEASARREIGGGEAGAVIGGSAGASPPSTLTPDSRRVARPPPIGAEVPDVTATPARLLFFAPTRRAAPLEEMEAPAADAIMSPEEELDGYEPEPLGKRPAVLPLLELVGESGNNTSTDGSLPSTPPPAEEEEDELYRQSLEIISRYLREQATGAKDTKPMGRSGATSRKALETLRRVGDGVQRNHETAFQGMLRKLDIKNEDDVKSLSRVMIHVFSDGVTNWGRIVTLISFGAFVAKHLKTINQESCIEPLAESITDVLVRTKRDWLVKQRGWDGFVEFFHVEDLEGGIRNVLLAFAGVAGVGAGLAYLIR
# FAD-linked sulfhydryl oxidase ALR, sequence (P55789 whole entry): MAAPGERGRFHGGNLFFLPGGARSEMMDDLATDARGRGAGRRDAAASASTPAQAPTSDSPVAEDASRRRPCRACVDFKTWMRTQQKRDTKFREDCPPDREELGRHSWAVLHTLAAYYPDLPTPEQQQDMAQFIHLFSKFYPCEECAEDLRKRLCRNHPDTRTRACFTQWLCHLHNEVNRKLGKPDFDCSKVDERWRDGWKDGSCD
# Serine/threonine-protein phosphatase, sequence (Q9BPW0 whole entry): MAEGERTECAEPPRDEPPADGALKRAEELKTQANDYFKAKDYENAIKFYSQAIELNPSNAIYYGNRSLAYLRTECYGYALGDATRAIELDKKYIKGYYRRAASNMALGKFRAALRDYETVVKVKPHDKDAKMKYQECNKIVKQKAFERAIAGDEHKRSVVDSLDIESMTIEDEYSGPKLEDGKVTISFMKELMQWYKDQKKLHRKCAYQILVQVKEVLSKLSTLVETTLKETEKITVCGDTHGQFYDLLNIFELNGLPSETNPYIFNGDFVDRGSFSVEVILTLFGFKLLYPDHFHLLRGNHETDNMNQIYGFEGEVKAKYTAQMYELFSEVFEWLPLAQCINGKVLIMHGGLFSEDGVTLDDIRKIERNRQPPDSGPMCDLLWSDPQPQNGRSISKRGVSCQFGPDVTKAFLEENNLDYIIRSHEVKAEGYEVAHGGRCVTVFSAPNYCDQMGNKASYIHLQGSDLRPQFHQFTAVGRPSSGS
# G-protein coupled receptor 55, sequence (Q9Y2T6 whole entry): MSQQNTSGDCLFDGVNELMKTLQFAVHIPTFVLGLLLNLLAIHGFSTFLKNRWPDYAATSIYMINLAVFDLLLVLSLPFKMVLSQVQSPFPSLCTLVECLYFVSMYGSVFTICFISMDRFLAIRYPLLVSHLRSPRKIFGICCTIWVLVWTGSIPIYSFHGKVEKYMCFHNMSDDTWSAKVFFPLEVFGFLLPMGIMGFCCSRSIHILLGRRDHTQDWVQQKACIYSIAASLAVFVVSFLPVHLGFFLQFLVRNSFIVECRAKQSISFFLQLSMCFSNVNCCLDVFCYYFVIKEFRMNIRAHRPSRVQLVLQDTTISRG
# Paired box protein Pax-8, sequence (Q06710 whole entry): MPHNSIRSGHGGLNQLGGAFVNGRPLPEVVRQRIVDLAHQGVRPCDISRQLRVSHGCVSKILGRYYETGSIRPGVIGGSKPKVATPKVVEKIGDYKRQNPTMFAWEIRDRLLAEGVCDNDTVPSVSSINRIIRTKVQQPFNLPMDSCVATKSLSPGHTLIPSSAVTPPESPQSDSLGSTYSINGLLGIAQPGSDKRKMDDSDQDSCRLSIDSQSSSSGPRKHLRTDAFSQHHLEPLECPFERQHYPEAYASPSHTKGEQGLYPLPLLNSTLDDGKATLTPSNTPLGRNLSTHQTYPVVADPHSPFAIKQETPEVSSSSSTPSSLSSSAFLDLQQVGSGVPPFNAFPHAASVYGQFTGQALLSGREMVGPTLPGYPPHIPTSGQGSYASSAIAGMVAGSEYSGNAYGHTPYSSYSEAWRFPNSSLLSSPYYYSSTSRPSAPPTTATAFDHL
# Luciferin 4-monooxygenase, sequence (P08659 whole entry): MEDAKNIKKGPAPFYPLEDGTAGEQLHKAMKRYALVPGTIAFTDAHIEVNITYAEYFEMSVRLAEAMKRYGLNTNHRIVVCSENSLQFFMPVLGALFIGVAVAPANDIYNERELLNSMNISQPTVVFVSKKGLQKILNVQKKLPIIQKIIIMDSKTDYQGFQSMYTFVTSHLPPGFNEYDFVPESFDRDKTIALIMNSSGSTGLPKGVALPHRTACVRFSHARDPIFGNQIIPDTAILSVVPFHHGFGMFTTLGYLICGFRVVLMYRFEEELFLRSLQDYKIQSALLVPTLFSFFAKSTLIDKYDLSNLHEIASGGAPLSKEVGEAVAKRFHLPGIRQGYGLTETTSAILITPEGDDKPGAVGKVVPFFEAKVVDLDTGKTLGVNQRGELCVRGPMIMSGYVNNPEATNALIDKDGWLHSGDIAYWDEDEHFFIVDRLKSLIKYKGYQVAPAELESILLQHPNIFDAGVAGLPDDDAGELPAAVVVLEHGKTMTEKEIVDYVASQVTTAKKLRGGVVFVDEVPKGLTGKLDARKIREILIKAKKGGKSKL
# Serine/threonine-protein phosphatase PP1-alpha catalytic subunit, sequence (P62136 whole entry): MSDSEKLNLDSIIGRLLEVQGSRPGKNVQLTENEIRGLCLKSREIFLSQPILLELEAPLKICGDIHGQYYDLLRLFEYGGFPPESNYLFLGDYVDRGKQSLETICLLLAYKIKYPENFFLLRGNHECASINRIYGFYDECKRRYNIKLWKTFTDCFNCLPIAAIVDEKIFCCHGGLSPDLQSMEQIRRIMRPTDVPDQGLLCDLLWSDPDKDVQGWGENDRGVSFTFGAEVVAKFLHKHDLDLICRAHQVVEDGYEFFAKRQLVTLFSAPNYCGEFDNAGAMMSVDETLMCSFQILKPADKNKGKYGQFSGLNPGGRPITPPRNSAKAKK
compound,measurement,setting,value
CN(C)c1ccc(/C=C/C(=O)c2c(O)oc3ccccc3c2=O)cc1,IC50,[1],> 55.7 µM (not active)
same,IC50,[2],> 2.07 µM (active)
same,EC50,[3],19.5 µM (inactive)
same,EC50,[4],7.5 µM (active)
O=C(Nc1ccncc1)c1ccc2ncsc2c1,CC50,[5],> 100 µM (active)
same,AC50,[6],1.34 µM (active)
CN(C)S(=O)(=O)c1cccc(-c2nn(-c3ccccc3)cc2/C=C2\SC(=S)NC2=O)c1,IC50,[7],7.59 µM (active)
same,IC50,[8],7.08 µM (active)
same,IC50,[9],10.6 µM (active)
same,IC50,[10],1.44 µM (active)
CCOC(=O)c1cnc(-n2nc(C)cc2C)nc1NCc1ccc2c(c1)OCO2,IC50,[11],5.21 µM (active)
same,EC50,[12],2.36 µM (active)
same,IC50,[13],> 67 µM (not active)
same,EC50,[14],> 60 µM (not active)
same,AC50,[15],8.74 µM (active)
same,AC50,[16],63 µM (active)
same,AC50,[17],16.1 µM (active)
COc1cccc(/C=N/Nc2ccc(C(=O)O)cc2)c1O,EC50,[18],0.693 µM (active)
same,EC50,[19],0.17 µM (active)
same,IC50,[20],> 39.8 µM (not active)
same,IC50,[21],> 80 µM (inactive)
same,AC50,[22],0.333 µM (active)
same,AC50,[23],29.9 µM (active)
same,AC50,[24],0.635 µM (active)
same,AC50,[25],21.6 µM (active)
